Test results as given in the supplement of paper PMC13207355.
Counter-ions that a name gives are not always drawn.

Assays:
Conditions in all cases: exposure time: 72 h
E28 [1] = patient-derived glioblastoma stem cells of classical subtype; experiment: surviving fraction (nuclei count normalised to DMSO); higher = more cells surviving (less toxic)
FT3469 [2] = normal neural stem cell line; experiment: as above
E34 [3] = patient-derived glioblastoma stem cells of proneural subtype; experiment: as above
E21 [4] = patient-derived glioblastoma stem cells of mesenchymal subtype; experiment: as above
E57 [5] = patient-derived glioblastoma stem cells of mesenchymal subtype; experiment: as above
E31 [6] = patient-derived glioblastoma stem cells of proneural subtype; experiment: as above
E13 [7] = patient-derived glioblastoma stem cells of classical subtype; experiment: as above
E28 [8] = experiment: phenotypic distance (Euclidean, principal components) from DMSO controls (arbitrary units); higher = stronger morphological change
FT3469 [9] = experiment: as above
E34 [10] = experiment: as above
E21 [11] = experiment: as above
E57 [12] = experiment: as above
E31 [13] = experiment: as above
E13 [14] = experiment: as above
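Throughout, for phenotypic distance (Euclidean, principal components) from DMSO controls: cell Painting imaging in 384-well plates, CellProfiler features reduced to at least 20 principal components, Euclidean distance versus same-plate DMSO vehicle wells (0.1% v/v), median over six images per well.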
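Throughout, for surviving fraction (nuclei count normalised to DMSO): nuclei counted by high-content imaging of Hoechst-stained cells in laminin-coated 384-well plates, relative to 0.1% DMSO vehicle wells, with staurosporine as cell-death control.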

COc1cccc2c1C(=O)c1c(O)c3c(c(O)c1C2=O)C[C@@](O)(C(C)=O)C[C@@H]3O[C@H]1C[C@H](N)[C@H](O)[C@H](C)O1 [Daunorubicin hydrochloride]
Conditions | phenotypic distance | surviving fraction
E13 [7], 4.1 nM | – | 0.54
E13 [7], 12.3 nM | – | 0.512
E13 [7], 37 nM | – | 0.342
E13 [7], 111.1 nM | – | 0.381
E13 [7], 333.3 nM | – | 0.216
E13 [7], 1000 nM | – | 0.0373
E13 [7], 3000 nM | – | 0.0142
E13 [14], 4.1 nM | 3.33 | –
E13 [14], 12.3 nM | 4.36 | –
E13 [14], 37 nM | 6.02 | –
E13 [14], 111.1 nM | 5.64 | –
E13 [14], 333.3 nM | 5.87 | –
E13 [14], 1000 nM | 7.81 | –
E13 [14], 3000 nM | 5.88 | –
E21 [4], 4.1 nM | – | 0.844
E21 [4], 12.3 nM | – | 0.597
E21 [4], 37 nM | – | 0.451
E21 [4], 111.1 nM | – | 0.343
E21 [4], 333.3 nM | – | 0.151
E21 [4], 1000 nM | – | 0.0632
E21 [4], 3000 nM | – | 0.055
E21 [11], 4.1 nM | 1.95 | –
E21 [11], 12.3 nM | 4.33 | –
E21 [11], 37 nM | 6.78 | –
E21 [11], 111.1 nM | 5.96 | –
E21 [11], 333.3 nM | 5.7 | –
E21 [11], 1000 nM | 6.37 | –
E21 [11], 3000 nM | 6.06 | –
E28 [1], 4.1 nM | – | 0.408
E28 [1], 12.3 nM | – | 0.419
E28 [1], 37 nM | – | 0.339
E28 [1], 111.1 nM | – | 0.251
E28 [1], 333.3 nM | – | 0.185
E28 [1], 1000 nM | – | 0.187
E28 [1], 3000 nM | – | 0.11
E28 [8], 4.1 nM | 1.76 | –
E28 [8], 12.3 nM | 2.56 | –
E28 [8], 37 nM | 2.56 | –
E28 [8], 111.1 nM | 3.09 | –
E28 [8], 333.3 nM | 3.78 | –
E28 [8], 1000 nM | 3.13 | –
E28 [8], 3000 nM | 5.54 | –
E31 [6], 4.1 nM | – | 0.51
E31 [6], 12.3 nM | – | 0.293
E31 [6], 37 nM | – | 0.266
E31 [6], 111.1 nM | – | 0.134
E31 [6], 333.3 nM | – | 0.0818
E31 [6], 1000 nM | – | 0.0315
E31 [6], 3000 nM | – | 0.0944
E31 [13], 4.1 nM | 2.77 | –
E31 [13], 12.3 nM | 2.46 | –
E31 [13], 37 nM | 2.46 | –
E31 [13], 111.1 nM | 4.45 | –
E31 [13], 333.3 nM | 4.56 | –
E31 [13], 1000 nM | 7.33 | –
E31 [13], 3000 nM | 5.46 | –
E34 [3], 4.1 nM | – | 0.644
E34 [3], 12.3 nM | – | 0.611
E34 [3], 37 nM | – | 0.591
E34 [3], 111.1 nM | – | 0.445
E34 [3], 333.3 nM | – | 0.471
E34 [3], 1000 nM | – | 0.259
E34 [3], 3000 nM | – | 0.0925
E34 [10], 4.1 nM | 1.67 | –
E34 [10], 12.3 nM | 4.29 | –
E34 [10], 37 nM | 4.68 | –
E34 [10], 111.1 nM | 3.18 | –
E34 [10], 333.3 nM | 2.84 | –
E34 [10], 1000 nM | 4.23 | –
E34 [10], 3000 nM | 3.57 | –
E57 [5], 4.1 nM | – | 0.583
E57 [5], 12.3 nM | – | 0.325
E57 [5], 37 nM | – | 0.194
E57 [5], 111.1 nM | – | 0.178
E57 [5], 333.3 nM | – | 0.149
E57 [5], 1000 nM | – | 0.0932
E57 [5], 3000 nM | – | 0.0598
E57 [12], 4.1 nM | 3.27 | –
E57 [12], 12.3 nM | 6.2 | –
E57 [12], 37 nM | 9.2 | –
E57 [12], 111.1 nM | 7.86 | –
E57 [12], 333.3 nM | 6.42 | –
E57 [12], 1000 nM | 6.83 | –
E57 [12], 3000 nM | 7.19 | –
FT3469 [2], 4.1 nM | – | 0.644
FT3469 [2], 12.3 nM | – | 0.625
FT3469 [2], 37 nM | – | 0.487
FT3469 [2], 111.1 nM | – | 0.606
FT3469 [2], 333.3 nM | – | 0.593
FT3469 [2], 1000 nM | – | 0.0798
FT3469 [2], 3000 nM | – | 0.0266
FT3469 [9], 4.1 nM | 1.72 | –
FT3469 [9], 12.3 nM | 1.77 | –
FT3469 [9], 37 nM | 2.11 | –
FT3469 [9], 111.1 nM | 2.17 | –
FT3469 [9], 333.3 nM | 2.57 | –
FT3469 [9], 1000 nM | 4.08 | –
FT3469 [9], 3000 nM | 7.48 | –
